Test results as given in the supplement of paper PMC10307832.

Columns and labels:
Experiment in all cases: relative viability (nuclei count vs DMSO), 5 days (fraction); higher = more cells survive
[1] = compound: CC1=CC(=CC=C1)NC2=NC(=CS2)C3=CC=NC=C3 + CS(=O)(=O)N1CCN(Cc2cc3nc(-c4cccc5[nH]ncc45)nc(N4CCOCC4)c3s2)CC1 [Pictilisib] (partner 1 µM)
How it was run: (§1)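 Dosing by pin tool came one day after lung cancer cell lines were seeded in 1536-well plates, using either one drug or a fixed anchor-drug dose plus five library-drug doses (not always all listed) in √10 steps. After 5 days, nuclei were counted on 4× images. Relative viability is treated-well nuclei count divided by vehicle-well nuclei count, and values are medians of duplicate plates.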

[2] = compound: CC1=CC(=CC=C1)NC2=NC(=CS2)C3=CC=NC=C3 + Nc1ncn([C@H]2C[C@H](O)[C@@H](CO)O2)c(=O)n1 [Decitabine] (partner 2 µM)
How it was run: as §1

Masitinib + Trametinib = compound: Cc1ccc(NC(=O)c2ccc(CN3CCN(C)CC3)cc2)cc1Nc1nc(-c2cccnc2)cs1 [Masitinib] + CC(=O)Nc1cccc(-n2c(=O)n(C3CC3)c(=O)c3c(Nc4ccc(I)cc4F)n(C)c(=O)c(C)c32)c1 [Trametinib] (partner 0.02 µM)
How it was run: as §1

Masitinib + Crizotinib = compound: Cc1ccc(NC(=O)c2ccc(CN3CCN(C)CC3)cc2)cc1Nc1nc(-c2cccnc2)cs1 [Masitinib] + C[C@@H](Oc1cc(-c2cnn(C3CCNCC3)c2)cnc1N)c1c(Cl)ccc(F)c1Cl [Crizotinib] (partner 1 µM)
How it was run: as §1

Cell Line: UMC-11
- relative viability ([1]; first compound 0.08 µM): 0.757
- relative viability ([1]; first compound 0.253 µM): 0.746
- relative viability ([1]; first compound 0.8 µM): 0.729
- relative viability ([1]; first compound 2.53 µM): 0.761
- relative viability ([1]; first compound 8 µM): 0.824
- relative viability ([2]; first compound 0.08 µM): 0.56
- relative viability ([2]; first compound 0.253 µM): 0.552
- relative viability ([2]; first compound 0.8 µM): 0.572
- relative viability ([2]; first compound 2.53 µM): 0.626
- relative viability ([2]; first compound 8 µM): 0.714
- relative viability (Masitinib + Trametinib; first compound 0.01 µM): 0.431
- relative viability (Masitinib + Trametinib; first compound 0.03162 µM): 0.588
- relative viability (Masitinib + Trametinib; first compound 0.1 µM): 0.617
- relative viability (Masitinib + Trametinib; first compound 0.3162 µM): 0.627
- relative viability (Masitinib + Trametinib; first compound 1 µM): 0.804
- relative viability (Masitinib + Crizotinib; first compound 0.01 µM): 0.467
- relative viability (Masitinib + Crizotinib; first compound 0.03162 µM): 0.677
- relative viability (Masitinib + Crizotinib; first compound 0.1 µM): 0.706
- relative viability (Masitinib + Crizotinib; first compound 0.3162 µM): 0.571
- relative viability (Masitinib + Crizotinib; first compound 1 µM): 0.691
